Measurements published in patent US20210213135A1 (Purdue Research Foundation, priority 2018, published 2021).
Primed or numbered codes have the meaning given here. Where no end group is shown, it is not given here. [ ]: non-standard residue; d: D form. mp4″ = 4 mini PEG linker (mini-PEG spacer)

Assays:
[1] = tested on: Swiss Webster fracture-bearing mice (healed femur); test: postmortem 4 point bend of the healed femur; assay type: in vivo
From the text: All in vivo data included herein are from Swiss Webster mice. All mice received an osteotomy on their right femur and received subcutaneous drug administration daily for either 2,3 or 4 weeks, or 17 days, as indicated, for each compound. 1× concentration represents 1 nmol/day, 10× represents 10 nmol/day, 100× represents 100 nmol/day most studies have an n of 5.
The term “Peak Load” means a postmortem 4 point bend of the healed femur. Peak load represents the maximum force the healed femur withstood before it refractured.
The targeted conjugates were synthesized using standard Fmoc solid-phase peptide synthesis, as described above. To ensure the conjugates' activity, mouse pre-osteoblast ([…]) cells were treated with the targeted and untargeted compounds for three days at concentrations from 1 pM to 100 nM. After three days of treatment, the cells were harvested, and the RNA was purified from the cells. Expression levels of ALP, RUNx2 (transcription factor for osteoblast differentiation), osterix (OSX), osteopontin (OPN), collagen 1A (Col-1A), OPG, RANKL, sclerostin gene (SOST), and OC were quantified via quantitative reverse transcription polymerase chain reaction (RT-qPCR). Once the biological activity of the conjugates was confirmed, they were tested in vivo in a fracture model. Aseptic surgical techniques were used to place a 23-gage needle as in intramedullary nail in the femur of anesthetized, 12-week-old Swiss Webster mice for internal fixation before fracture. Femur fractures were induced using a drop weight fracture device from RISystem. The mice received buprenorphine for three days post fracture. The mice were dosed subcutaneously each day for three weeks or 17 days. Fracture healing was assessed using microCT (Scanco Medical Ag). Morphometric parameters were quantified in the 100 widest slices of the fracture callus. Trabecular thickness (Tb.Th.), trabecular spacing (Tb.Sp.), total volume (TV), and volume of calcified callus (BV) were calculated. Fractured femurs were tested for strength in a four-point bend to failure using an Electro Force TestBench (TA Instruments). Lower supports were 10 mm apart on the anterior face of the femur in contact with the proximal and distal diaphysis. Upper supports were 4 mm apart and spanned the entire fracture callus on the diaphysis. Force was applied from the posterior face of the femur with a displacement rate of 0.3 mm/sec. Peak load, yield load, stiffness, displacement post yield, work to fracture, and deformation data were generated. Statistical analysis was performed using a two-way analysis of variance (ANOVA) and a Tukey post-hoc analysis with significance reported at the 95% confidence level. All animal experiments were performed in accordance with protocols approved by Purdue University's Institutional Animal Care and Use Committee (IACUC).

[2] = tested on: Swiss Webster fracture-bearing mice (fracture callus); test: micro CT of the fracture callus in the femur fracture model; assay type: in vivo
[3] = 17 days, 0.1, 1 and 10 nmol daily s.c., n=5

Row | Substance | Max load (peak load) [1, 3] | Work to fracture [1, 3] | BV (bone volume) [2, 3] | BV/TV [2, 3] | Peak load (max load) of healed femur ([1]; 4 weeks, printed dose 0×) | BV/TV ([2]; 4 weeks, 1, 10 and 100 nmol/day)
1 | SPARC113_mp4_(D)E10: SEQ ID NO: 30, SPARC residues 113-127 conjugated via 4 minipegs with 10 glutamic acids (H[dE][dE][dE][dE][dE][dE][dE][dE][dE][dE][mp4″]TLEGTKKGHKLHLDY) | raises bone strength | raises bone strength | raises bone mineralization | raises bone density | – | –
2 | substance P D10: SEQ ID NO: 4, substance P with 4 mini PEG linker and conjugated with 10 aspartate acids (DDDDDDDDDDRPKPQQFFGLM; 4 mini PEG linker; substance P 4 mini PEG D10 with; (10)..(11) 4 mini PEG linker) | – | – | – | – | 30-35 Newtons | dose dependent manner
